Measurements taken from patent publication US20220017501A1, “MICROBIOCIDAL THIAZOLE DERIVATIVES” (SYNGENTA PARTICIPATIONS AG, priority 2018, published 2022).

Key:
[1] = test system: Blumeria graminis f. sp. tritici (Erysiphe graminis f. sp. tritici); test: Blumeria graminis f. sp. tritici / wheat / leaf disc preventative (powdery mildew on wheat); format: in vivo; conditions: foliar, wheat leaf segments, compared to untreated control
Experimental: Example B4: Blumeria Graminis f. sp. Tritici (Erysiphe Graminis f. sp. Tritici)/Wheat/Leaf Disc Preventative (Powdery Mildew on Wheat) Wheat leaf segments cv. Kanzler are placed on agar in a multiwell plate (24-well format) and sprayed with the formulated test compound diluted in water. The leaf disks are inoculated by shaking powdery mildew infected plants above the test plates 1 day after application. The inoculated leaf disks are incubated at 20° C. and 60% rh under a light regime of 24 h darkness followed by 12 h light/12 h darkness in a climate chamber and the activity of a compound is assessed as percent disease control compared to untreated when an appropriate level of disease damage appears on untreated check leaf segments (6-8 days after application). […].23.

[2] = test system: Monographella nivalis (Microdochium nivale); test: Monographella nivalis (Microdochium nivale) / liquid culture (foot rot cereals); format: cell-based; conditions: growth inhibition photometrically 4-5 days after application, read-out: control of Monographella nivalis
Experimental: (§1) Example B7: Monographella Nivalis (Microdochium Nivale)/Liquid Culture (Foot Rot Cereals) Conidia of the fungus from cryogenic storage are directly mixed into nutrient broth (PDB potato dextrose broth). After placing a (DMSO) solution of test compound into a microtiter plate (96-well format), the nutrient broth containing the fungal spores is added. The test plates are incubated at 24° C. and the inhibition of growth is determined photometrically 4-5 days after application. […] […].23.

[3] = test system: Mycosphaerella graminicola (Septoria tritici); test: Mycosphaerella graminicola (Septoria tritici) / liquid culture (Septoria blotch); format: cell-based; conditions: Zymoseptoria tritici, growth inhibition photometrically 4-5 days after application, read-out: control of Mycosphaerella graminicola
Experimental: as §1, with “B16: Mycosphaerella Graminicola (Septoria Tritici)/Liquid” for “B7: Monographella Nivalis (Microdochium Nivale)/Liquid”, “(Septoria Blotch)” for “(Foot Rot Cereals)”

Pyrenophora teres = Pyrenophora teres / barley / leaf disc preventative (net blotch); format: in vivo; conditions: foliar, barley leaf segments, compared to untreated control
Experimental: Example B14: Pyrenophora Teres/Barley/Leaf Disc Preventative (Net Blotch) Barley leaf segments cv. Hasso are placed on agar in a multiwell plate (24-well format) and sprayed with the formulated test compound diluted in water. The leaf […] inoculated with a spore suspension of the fungus 2 days after application. The inoculated leaf segments are incubated at 20° C. and 65% rh under a light regime of 12 h light/12 h darkness in a climate cabinet and the activity of a compound is assessed as disease control compared to untreated when an appropriate level of disease damage appears in untreated check leaf segments (5-7 days after application). […] […].23.

[4] = test system: Magnaporthe grisea (Pyricularia oryzae); test: whole plant or invertebrate; format: in vivo; conditions: foliar, read-out: control of Magnaporthe grisea
[5] = test system: Glomerella lagenarium (Colletotrichum lagenarium); test: Glomerella lagenarium (Colletotrichum lagenarium) / liquid culture (anthracnose); format: cell-based; conditions: Colletotrichum orbiculare, growth inhibition photometrically 3-4 days after application, read-out: control of Glomerella lagenarium
Experimental: Example B3: Glomerella Lagenarium (Colletotrichum Lagenarium)/Liquid Culture (Anthracnose) Conidia of the fungus from cryogenic storage are directly mixed into nutrient broth (PDB potato dextrose broth). After placing a (DMSO) solution of test compound into a microtiter plate (96-well format), the nutrient broth containing the fungal spores is added. The test plates are incubated at 24° C. and the inhibition of growth is measured photometrically 3-4 days after application.

[6] = test system: Mycosphaerella arachidis (Cercospora arachidicola); test: Mycosphaerella arachidis (Cercospora arachidicola) / liquid culture (early leaf spot); format: cell-based; conditions: growth inhibition photometrically 4-5 days after application, read-out: control of Mycosphaerella arachidis
Experimental: as §1, with “B8: Mycosphaerella Arachidis (Cercospora Arachidicola)/Liquid” for “B7: Monographella Nivalis (Microdochium Nivale)/Liquid”, “(Early Leaf Spot)” for “(Foot Rot Cereals)”

Cc1sc(N(C#N)c2cc(F)nc(F)c2)nc1C(=O)NCC(C)C [I.i.23, 2-[cyano-(2,6-difluoro-4-pyridyl)amino]-N-isobutyl-5-methyl-thiazole-4-carboxamide]
≥ 80%: pest or weed control at 200 ppm [1] | inhibition of growth at 20 ppm [2] | inhibition of growth at 20 ppm [3] | pest or weed control at 200 ppm (Pyrenophora teres) | pest or weed control at 200 ppm [4] | inhibition of growth at 20 ppm [5]

Cc1sc(N(C#N)c2cc(F)nc(F)c2)nc1C(=O)NCC(C)(C)C [I.k.23, 2-[cyano-(2,6-difluoro-4-pyridyl)amino]-N-(2,2-dimethylpropyl)-5-methyl-thiazole-4-carboxamide]
≥ 80%: pest or weed control at 200 ppm [1] | inhibition of growth at 20 ppm [2] | inhibition of growth at 20 ppm [3] | pest or weed control at 200 ppm (Pyrenophora teres) | pest or weed control at 200 ppm [4] | inhibition of growth at 20 ppm [5] | inhibition of growth at 20 ppm [6]

Cc1sc(N(C#N)c2cc(F)nc(F)c2)nc1C(=O)NC1(C)CCCC1 [I.g.23, 2-[cyano-(2,6-difluoro-4-pyridyl)amino]-5-methyl-N-(1-methylcyclopentyl)thiazole-4-carboxamide]
≥ 80%: pest or weed control at 200 ppm [1] | inhibition of growth at 20 ppm [2] | inhibition of growth at 20 ppm [3] | pest or weed control at 200 ppm (Pyrenophora teres) | pest or weed control at 200 ppm [4] | inhibition of growth at 20 ppm [5] | inhibition of growth at 20 ppm [6]

Cc1sc(N(C#N)c2cc(F)nc(F)c2)nc1C(=O)NC1CCC12CCCC2 (stereo not shown) [I.c.23, 2-[cyano-(2,6-difluoro-4-pyridyl)amino]-5-methyl-N-spiro[3.4]octan-3-yl-thiazole-4-carboxamide]
≥ 80%: pest or weed control at 200 ppm [1] | inhibition of growth at 20 ppm [2] | inhibition of growth at 20 ppm [3] | pest or weed control at 200 ppm (Pyrenophora teres) | pest or weed control at 200 ppm [4] | inhibition of growth at 20 ppm [5] | inhibition of growth at 20 ppm [6]

CCCCNC(=O)c1nc(N(C#N)c2cc(F)nc(F)c2)sc1C [I.p.23, N-butyl-2-[cyano-(2,6-difluoro-4-pyridyl)amino]-5-methyl-thiazole-4-carboxamide]
≥ 80%: pest or weed control at 200 ppm [1] | inhibition of growth at 20 ppm [2] | inhibition of growth at 20 ppm [3] | pest or weed control at 200 ppm (Pyrenophora teres) | pest or weed control at 200 ppm [4] | inhibition of growth at 20 ppm [5] | inhibition of growth at 20 ppm [6]

Cc1sc(N(C#N)c2cc(F)nc(F)c2)nc1C(=O)NC1CCC12Cc1ccccc1C2 (stereo not shown) [I.d.23, 2-[cyano-(2,6-difluoro-4-pyridyl)amino]-5-methyl-N-spiro[cyclobutane-2,2′-indane]-1-yl-thiazole-4-carboxamide]
≥ 80%: pest or weed control at 200 ppm [1] | inhibition of growth at 20 ppm [2] | inhibition of growth at 20 ppm [3] | pest or weed control at 200 ppm (Pyrenophora teres) | pest or weed control at 200 ppm [4] | inhibition of growth at 20 ppm [5] | inhibition of growth at 20 ppm [6]

Cc1sc(N(C#N)c2cc(F)nc(F)c2)nc1C(=O)NC1CCC1 [I.a.23, 2-[cyano-(2,6-difluoro-4-pyridyl)amino]-N-cyclobutyl-5-methyl-thiazole-4-carboxamide]
≥ 80%: pest or weed control at 200 ppm [1] | inhibition of growth at 20 ppm [2] | inhibition of growth at 20 ppm [3] | pest or weed control at 200 ppm (Pyrenophora teres) | pest or weed control at 200 ppm [4]
